# From patent US20220408724A1, “METHOD FOR CONTROLLING METABOLISM OF BRANCHED FATTY ACID” (KAO CORPORATION, priority 2019, published 2022)
# Several values for one entry are separate records, joined by “and”; a condition that tells them apart may be missing. Equal values may be shown once.
# Assays:
# Type in all cases: cell-based
# Micrococcus aloeverae = test: Measurement of viable bacterial count on fabric
# Procedure: (§1) After culture on fabric prepared in the same manner as in the above (1), 9 mL of an LP diluent (manufactured by NIHON PHARMACEUTICAL CO., LTD.) was added, and the extraction of the bacteria was carried out under ultrasound for 10 minutes. The extraction liquid was poured and mixed to an SCD-LP agar medium (NIHON PHARMACEUTICAL CO., LTD.), and culture was thereafter carried out at 37° C.; for a day. The number of colonies obtained on each piece of the fabric was counted, and a common logarithm value thereof was measured as the viable bacterial count. […] In addition, the […], the more the viable bacterial count of the microorganism is maintained.
# The metabolism of 14-methylhexadecanoic acid by bacteria of the genus Micrococcus was tested in the same manner as in example 1.
# In this example, Micrococcus aloeverae (strain isolated from clothing) was used as a microorganism.
# Further, in this example, a bacterial suspension of 10^7 (CFU/ml) prepared by using an SCD liquid medium (NIHON PHARMACEUTICAL CO., LTD.) diluted to 1/10 with ion exchange water was used as a bacterial suspension.
# (§2) Note that, in this example, C12OH (1-dodecanol) was used as the metabolism controlling agent.
# Staphylococcus aureus = test: Suppression of metabolite 4-methylhexanoic acid from 14-methylhexadecanoic acid
# Procedure: (§3) After culture on fabric prepared in the same manner as in the above (1), 3 ml of methanol was added, and extraction was carried out under ultrasonic irradiation for 30 minutes (20° C.). The extraction liquid was mixed with (a 1000 ppm methanol solution of) an ADAM reagent of Funakoshi Co., Ltd. at 1:1 (volume ratio) and left overnight under room temperature and dark place conditions. After that, 4-methyl-3-hexenoic acid as a metabolite from 14-methylhexadecanoic acid was quantified by HPLC. The quantification conditions are as follows.
# (§4) The production amount of 4-methyl-3-hexenoic acid after culture on the fabric to which each metabolism controlling agent was added was quantified, and the ratio of the production amount to that of 4-methyl-3-hexenoic acid in the case of adding no metabolism controlling agent (control) was calculated as a metabolite suppression rate (%). The higher a numerical value thereof is, the more the metabolism is suppressed. Note that the metabolite suppression rate was determined by the following formula:
# (§5) Metabolite suppression rate(%)=100×[(D−C)/D] • C: production amount of metabolite of example or comparative example (μg/fabric g) • D: production amount of metabolite of control (μg/fabric g)
# The metabolism of 14-methylhexadecanoic acid by bacteria of the genus Staphylococcus (Staphylococcus aureus) was tested in the same manner as in example 1.
# In this example, Staphylococcus aureus (strain isolated from clothing) was used as a microorganism.
# Further, in this example, a bacterial suspension of 10^7 (CFU/ml) prepared by using an NB liquid medium diluted to 1/10 with ion exchange water was used as a bacterial suspension.
# (§6) Further, in this example, 4-methylhexanoic acid was quantified as a metabolite from 14-methylhexadecanoic acid, and the metabolite suppression rate was determined in the same manner as in example 1.
# as §2
# [1] = tested on: Escherichia coli (NBRC3972); test: as above
# Procedure: as §3, §4, §5
# (§7) The metabolism of 14-methylhexadecanoic acid by bacteria of the genus Escherichia (Escherichia coli) was tested in the same manner as in example 1.
# (§8) In this example, Escherichia coli (NBRC3972) was used as a microorganism.
# (§9) Further, in this example, a bacterial suspension of 10^6 (CFU/ml) prepared by using an NB liquid medium diluted to 1/10 with ion exchange water was used as a bacterial suspension.
# as §6, §2
# [2] = tested on: Escherichia coli (NBRC3972); test: Measurement of viable bacterial count on fabric
# Procedure: as §1, §7, §8, §9, §2
# Rhodotorula mucilaginosa [3] = test: Suppression of metabolite 4-methylhexanoic acid from 14-methylhexadecanoic acid
# Procedure: The extraction liquid was mixed with (a 1000 ppm methanol solution of) an ADAM reagent of Funakoshi Co., Ltd. at 1:1 (volume ratio) and left overnight under room temperature and dark place conditions. […] The quantification conditions are as follows. […] The higher a numerical value thereof is, the more the metabolism is suppressed. Note that the metabolite suppression rate was determined by the following formula: […] In this example, Rhodotorula mucilaginosa (strain isolated from clothing) was used as a microorganism. Further, in this example, the bacteria were precultured under conditions of a PDA agar medium (Difco), 30° C.; and 48 hours. Further, in this example, a bacterial suspension of 10^7 (CFU/ml) prepared by using a PDB liquid medium (Difco) diluted to 1/10 with ion exchange water was used as a bacterial suspension.
# Rhodotorula mucilaginosa [4] = test: Measurement of viable count on fabric (PDA agar)
# Procedure: as §1
# The metabolism of 14-methylhexadecanoic acid by yeast of the genus Rhodotorula was tested in the same manner as in example 1.
# In this example, Rhodotorula mucilaginosa (strain isolated from clothing) was used as a microorganism.
# Further, in this example, the bacteria were precultured under conditions of a PDA agar medium (Difco), 30° C.; and 48 hours.
# Further, in this example, a bacterial suspension of 10^7 (CFU/ml) prepared by using a PDB liquid medium (Difco) diluted to 1/10 with ion exchange water was used as a bacterial suspension.
# Further, in this example, after the extraction of the bacteria in (3) of example 1, they were poured and mixed to a PDA agar medium (Difco) and thereafter cultured at 30° C.; for 2 days, and the viable bacterial count was measured.
# as §2
# Moraxella osloensis = test: Examination example: suppression of metabolite 4-methyl-3-hexenoic acid, components (a) and (b)/(b′); conditions: single agent 100 μg/fabric g
# Procedure: as §3
# Eluent: acetonitrile 61% (v/v), water 39% (v/v) Column temperature: 40° C. Sample injection volume: 10 μL Flow rate: 1.0 mL/min
# as §4, with “the” for “each”, “formula. In references 1-1, 2-1, 3-1 and 4-1, which are controls, the metabolite suppression rate is 0%.” for “formula:”
# Metabolite suppression rate(%)=100×[(D−C)/D] • C: production amount of metabolite of reference or examination example (μg/fabric g) • D: production amount of metabolite of control (μg/fabric g)
structure (smiles),measurement,setting,value
"CCCCCCCCCCCCO [Example C12OH, 1-dodecanol]",Bacterial count (Log (cfu/fabric cm^2)),Micrococcus aloeverae; agent 100 μg/fabric g,6.5 Log (cfu/fabric cm^2)
same,Bacterial count (Log (cfu/fabric cm^2)),Micrococcus aloeverae; agent 500 μg/fabric g,5.6 Log (cfu/fabric cm^2)
same,Bacterial count (Log (cfu/fabric cm^2)),Micrococcus aloeverae; agent 1000 μg/fabric g,5.6 Log (cfu/fabric cm^2)
same,Metabolite suppression rate (%),Staphylococcus aureus; agent 100 μg/fabric g,10.00%
same,Metabolite suppression rate (%),Staphylococcus aureus; agent 250 μg/fabric g,74% and 64.10%
same,Metabolite suppression rate (%),Staphylococcus aureus; agent 500 μg/fabric g,93.20%
same,Metabolite suppression rate (%),[1]; agent 500 μg/fabric g,74% and 41%
same,Metabolite suppression rate (%),[1]; agent 1000 μg/fabric g,93% and 65%
same,Metabolite suppression rate (%),[1]; agent 2000 μg/fabric g,77%
same,Metabolite suppression rate (%),[1]; agent 3000 μg/fabric g,80%
same,Bacterial count (Log (cfu/fabric cm^2)),[2]; agent 500 μg/fabric g,6.3 Log (cfu/fabric cm^2)
same,Bacterial count (Log (cfu/fabric cm^2)),[2]; agent 1000 μg/fabric g,6.3 Log (cfu/fabric cm^2) and 6.4 Log (cfu/fabric cm^2)
same,Bacterial count (Log (cfu/fabric cm^2)),[2]; agent 2000 μg/fabric g,6.3 Log (cfu/fabric cm^2)
same,Bacterial count (Log (cfu/fabric cm^2)),[2]; agent 3000 μg/fabric g,6.3 Log (cfu/fabric cm^2)
same,Metabolite suppression rate (%),Rhodotorula mucilaginosa [3]; agent 250 μg/fabric g,62% and 72.50%
same,Metabolite suppression rate (%),Rhodotorula mucilaginosa [3]; agent 500 μg/fabric g,65.80%
same,Metabolite suppression rate (%),Rhodotorula mucilaginosa [3]; agent 1000 μg/fabric g,82.20%
same,Bacterial count (Log (cfu/fabric cm^2)),Rhodotorula mucilaginosa [4]; agent 250 μg/fabric g,4.9 Log (cfu/fabric cm^2)
same,Bacterial count (Log (cfu/fabric cm^2)),Rhodotorula mucilaginosa [4]; agent 500 μg/fabric g,4.7 Log (cfu/fabric cm^2)
same,Bacterial count (Log (cfu/fabric cm^2)),Rhodotorula mucilaginosa [4]; agent 1000 μg/fabric g,4.8 Log (cfu/fabric cm^2)
same,Product of metabolism of branched fatty acid: Metabolite suppression rate (%),Moraxella osloensis,20%
same,Product of metabolism of branched fatty acid: Production amount (μg/fabric g),Moraxella osloensis,3.5 μg/fabric g
